Where “and” joins values, the source holds several entries; their conditions need not be identical. Equal values may be shown once.
Tests used:
[1] = target: T1, GSTO1 (Homo sapiens, UniProt P78417); test: GSTO1 substrate assay (reduction of 4-NPG); conditions: for IC50: read-out: GSTO substrate assay IC50, cluster screening tables
T1 sequence (P78417 1-241): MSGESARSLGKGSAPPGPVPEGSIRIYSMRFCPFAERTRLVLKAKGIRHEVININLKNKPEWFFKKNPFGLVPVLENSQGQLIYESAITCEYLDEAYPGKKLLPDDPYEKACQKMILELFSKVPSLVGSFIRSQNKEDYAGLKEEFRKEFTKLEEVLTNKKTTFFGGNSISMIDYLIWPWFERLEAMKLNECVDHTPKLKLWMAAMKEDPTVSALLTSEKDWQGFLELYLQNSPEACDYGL
Description: For activity screening, we adapted a GSTO1 substrate assay that relies on the quantification of the reduction of S-(4-nitrophenacyl)glutathione (4-NPG), a GSTO1-specific substrate[17], using recombinant human GSTO1 in a high-throughput screening format.
Enzyme activity was measured by monitoring the reduction of 4-NPG to 4-nitroacetophenone by GSTO1.

[2] = system: HCT116p53+/+ cell; test: MTT cell proliferation at single concentration; type: cell-based, human
Description: Cell proliferation was assessed by a MTT assay. Cancer cells were seeded in 96-well microtitre plates and, after overnight attachment, treated with GSTO1 inhibitors. After 72 h, MTT solution (3 mg ml^−1; 20 μl) was added to each well and cells were incubated for 3 h at 37 °C. After incubation, media from each well was removed and the dark blue formazan crystals formed by live cells were dissolved in DMSO (150 μl per well). The absorbance intensity was measured at 570 nm on a microplate reader (Molecular Devices, Sunnyvale, CA, USA). Cell viability after 24 h treatment was assessed using ApoTox-Glo triplex assay (Promega) according to the manufacturer's protocol. At least three independent dose–response experiments with each concentration tested in triplicate were performed for each cell line.

[3] = target: T2, endogenous GSTO1 (Homo sapiens, UniProt P78417); test: In-gel fluorescence competitive CMFDA binding assay, endogenous GSTO1 in HCT116; conditions: 10 µM; inhibition of CMFDA binding, HCT116
T2 sequence (P78417 1-241): T1 sequence (P78417 1-241)
Description: (§1) Primary screening of GSTO inhibitors was based on competitive inhibition of CMFDA binding to endogenous GSTO. Briefly, HCT116^p53+/+ cells (4 × 10^4 per well) were coated in a 12-well plate. […] Cells were then washed with PBS and lysed using Cell Lytic M buffer (Sigma). […] Gels were immediately scanned on a Typhoon variable mode imager (Amersham Bioscience). Quantification of fluorescent band intensity was done using Image Quant 5.2 software.

[4] = target: T1, GSTO1; test: In-gel fluorescence competitive CMFDA binding assay, recombinant GSTO1; conditions: inhibition of CMFDA binding
Description: as §1

Compound | GSTO substrate assay % Inhibition at 10 µM [1] | % Inhibition of HCT116p53+/+ cell proliferation at 10 µM [2] | GSTO binding assay (% Inhibition at 10 µM) Endogenous [3] | GSTO binding assay (% Inhibition at 10 µM) Recombinant [4] | IC50 [1]
Cc1cccc(C(O)(C(=O)NN(C(=O)CCl)C2CCCCC2)c2cccc(C)c2)c1 [C4-21] | 23.3% | 50.6% and 54.9% | 20.6% | 9.8% | 
O=C(CCl)Nc1ccccc1N1CCCC1=O [C1-18] | 3.7% | 41.5% and 41.7% | 54.4% | 6.4% | 
NC(=O)C1CN(C(=O)CCl)c2ccccc2O1 (stereo not drawn) [C5-24] | 83.7% | 79.8% and 87.3% | 69.2% | 54.9% | 4110 nM
Cc1ccc(C)c(-n2nc(C)cc2NC(=O)CCl)c1 [C2-4] | 0.5% | 81.4% and 84.4% | 51.3% | 35.8% | 
CCOC(=O)c1c(NC(=O)CCl)sc(Cl)c1-c1ccccc1 [C2-9] | 13.9% | 16.3% | 59.2% | 50.0% | 
CN(C1CCCCC1)S(=O)(=O)c1ccc(NC(=O)CCl)cc1 [C1-25] | 9.8% | 11.3% and 21.7% |  | 70.3% | 
O=C(CCl)Nc1nc(-c2c[nH]c3ccccc23)cs1 [C2-25] | 3.7% | 0.5% and 4.3% |  | 75.7% | 
Cc1c(C#N)c(NC(=O)CCl)n(-c2ccc(F)cc2)c1C [C2-3] | 61.5% | 49% | 47.0% | 37.8% | 
CC(C)(C)c1ccc(C(=O)NNC(=O)CCl)cc1 [C3-20] | 42.7% | 29.1% | 32.9% | 3.9% | 
O=C(CCl)NCC(=O)Nc1ccc(F)c(F)c1 [C3-25] | 82.4% | 64.5% and 67.8% | 57.1% | 36.2% | 
N#CC(c1ccccc1)N1CCN(C(=O)CCl)CC1 (stereo not drawn) [C5-8] | 93.8% | 82.6% and 87.3% | 75.7% | 62.3% | 293 nM
Cc1cc(S(=O)(=O)N(C)C)cc(NC(=O)CCl)c1C [C1-26] | 31.1% | 13.2% | 48.9% | 51.4% | 
O=C(CCl)N1CCN(Cc2ccccc2F)CC1 [C5-7] | 72.8% | -2.0% and -4.5% | 53.1% | 65.1% | 338 nM
Cc1ccc(C)c(S(=O)(=O)N2CCN(C(=O)CCl)CC2)c1 [C5-12] | 84.9% | 7.3% | 47.1% | 66.0% | 
O=C(CCl)N1CCN(c2ncc(C(F)(F)F)cc2Cl)CC1 [C5-6] | 94.6% | 56.2% |  | 70.2% | 191 nM
CCOC(=O)c1c(NC(=O)CCl)sc(C(=O)Nc2ccc(C)cc2C)c1C [C2-14] | -7.0% | 6.3% | 58.2% | 57.9% | 
CC1Cc2cc(S(N)(=O)=O)ccc2N1C(=O)CCl (stereo not drawn) [C5-20] | 61.0% | 80.5% and 89.8% |  | 68.1% | 2290 nM
Cc1cc(C(C)(C)C)cc(C)c1NC(=O)CCl [C1-1] | 16.2% | 14% and 21.3% |  | 17.7% | 
NC(=O)CCN(C(=O)CCl)c1ccccc1 [C4-3] | 32.3% | 70.6% and 71.9% |  | -1.7% | 
C=CCOc1ccccc1CN(C(=O)CCl)c1ccc2c(c1)OCCO2 [C4-17] | 70.2% | 29% |  | 69.3% | 902 nM
O=C(CCl)N1CCN(S(=O)(=O)c2ccc3c(c2)OCCO3)CC1 [C5-15] | 63.7% | 82.7% and 87.3% |  | 62.4% | 262 nM
O=C(CCl)N1CCc2cc([N+](=O)[O-])ccc21 [C5-19] | 40.0% | 84.6% and 75.2% |  | 72.2% | 
CN(C)S(=O)(=O)c1ccc2c(c1)CCCN2C(=O)CCl [C5-18] | 72.7% | 91.6% and 91.4% |  | 69.7% | 164 nM
COc1cc(OC)c(OC)cc1CNC(=O)CCl [C3-4] | 31.6% | 16% and 17.5% |  | -2.6% | 
Cc1ccc(-c2oc(NC(=O)CCl)c(C#N)c2-c2ccc(C)cc2)cc1 [C2-28] | -2.8% | 88.5% |  | 59.5% | 
COCCN(C(=O)CCl)c1c(N)n(Cc2ccccc2)c(=O)[nH]c1=O [C4-18] | 14.2% |  | 18.7% | 4.5% | 
COC(=O)c1ccc(C(=O)OC)c(NC(=O)CCl)c1 [C1-8] | 100.9% |  | 56.5% | 61.2% | 5680 nM
O=C(CCl)N1CCC(Cc2ccccc2)CC1 [C5-1] | 83.5% | 93.4% |  | 67.5% | 48 nM
Cc1c(-c2ccccc2)sc(NC(=O)CCl)c1C(=O)N1CCOCC1 [C2-15] | 87.8% |  | 74.2% | 63.2% | 360 nM
O=C(CCl)Nc1c(Br)cc([N+](=O)[O-])cc1Br [C1-3] | -4.9% |  | 3.8% | 0.9% | 

From article PMC5059489, “Mechanistic evaluation and transcriptional signature of a glutathione S-transferase omega 1 inhibitor” (Nature Communications, 2016)
